# According to PubChem BioAssay AID330 (DTP/NCI, 2004):
# Several values for one entry are separate records, joined by “and”; a condition that tells them apart may be missing. Equal values may be shown once. Toxic doses and inconclusive results are not listed.
# Tested on: P388 leukemia ip, CD2F1 mice, survival T/C
# Test: NCI In Vivo Anticancer Drug Screen. Data for tumor model P388 Leukemia (intraperitoneal) in CD2F1 (CDF1) mice
# Conditions: endpoint: median survival time, higher = longer survival
# How it was run: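 Mice carrying the transplanted tumor received test compound or vehicle. Survival was recorded in each group, and the value is the treated-group measurement divided by that of the vehicle-treated control group.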
# [1] = dose: 50.0 mg/kg/injection, schedule: Q01DX005 (ip), vehicle: Klucel (hydroxypropylcellulose) (HPC)
# [2] = dose: 100.0 mg/kg/injection, schedule: Q01DX005 (ip), vehicle: Klucel (hydroxypropylcellulose) (HPC)
# [3] = dose: 200.0 mg/kg/injection, schedule: Q01DX005 (ip), vehicle: Klucel (hydroxypropylcellulose) (HPC)
# [4] = dose: 100.0 mg/kg/injection, schedule: Q01DX009 (ip), vehicle: saline with Tween-80
# [5] = dose: 200.0 mg/kg/injection, schedule: Q01DX009 (ip), vehicle: saline with Tween-80
compound,measurement,setting,value
C[C@@H](CN1CC(=O)NC(=O)C1)N1CC(=O)NC(=O)C1,T/C,"dose: 0.06 mg/kg/injection, schedule: Q01DX009 (ip), vehicle: Klucel (hydroxypropylcellulose) (HPC)",108 % of control
same,T/C,"dose: 0.12 mg/kg/injection, schedule: Q01DX009 (ip), vehicle: Klucel (hydroxypropylcellulose) (HPC)",101 % of control
same,T/C,"dose: 0.25 mg/kg/injection, schedule: Q01DX009 (ip), vehicle: Klucel (hydroxypropylcellulose) (HPC)",111 % of control
same,T/C,"dose: 0.5 mg/kg/injection, schedule: Q01DX009 (ip), vehicle: Klucel (hydroxypropylcellulose) (HPC)",115 % of control
same,T/C,"dose: 1.0 mg/kg/injection, schedule: Q01DX009 (ip), vehicle: Klucel (hydroxypropylcellulose) (HPC)",121 % of control
same,T/C,"dose: 4.0 mg/kg/injection, schedule: Q01DX009 (ip), vehicle: Klucel (hydroxypropylcellulose) (HPC)",154 % of control
same,T/C,"dose: 8.0 mg/kg/injection, schedule: Q01DX009 (ip), vehicle: Klucel (hydroxypropylcellulose) (HPC)",159 % of control
same,T/C,"dose: 16.0 mg/kg/injection, schedule: Q01DX005 (iv), vehicle: suspension in saline",117 % of control
same,T/C,"dose: 16.0 mg/kg/injection, schedule: Q01DX009 (ip), vehicle: Klucel (hydroxypropylcellulose) (HPC)",187 % of control
same,T/C,"dose: 25.0 mg/kg/injection, schedule: Q01DX009 (ip), vehicle: Klucel (hydroxypropylcellulose) (HPC)",178 % of control
same,T/C,"dose: 32.0 mg/kg/injection, schedule: Q01DX005 (iv), vehicle: suspension in saline",119 % of control
same,T/C,"dose: 32.0 mg/kg/injection, schedule: Q01DX009 (ip), vehicle: Klucel (hydroxypropylcellulose) (HPC)",218 % of control
same,T/C,"dose: 50.0 mg/kg/injection, schedule: Q01DX009 (ip), vehicle: Klucel (hydroxypropylcellulose) (HPC)",166 % of control and 221 % of control
same,T/C,"dose: 64.0 mg/kg/injection, schedule: Q01DX009 (ip), vehicle: Klucel (hydroxypropylcellulose) (HPC)",218 % of control
same,T/C,"dose: 100.0 mg/kg/injection, schedule: Q01DX009 (ip), vehicle: Klucel (hydroxypropylcellulose) (HPC)",200 % of control
same,T/C,"dose: 128.0 mg/kg/injection, schedule: Q01DX005 (ip), vehicle: suspension in saline",161 % of control and 177 % of control
same,T/C,"dose: 128.0 mg/kg/injection, schedule: Q01DX009 (ip), vehicle: Klucel (hydroxypropylcellulose) (HPC)",229 % of control
same,T/C,"dose: 200.0 mg/kg/injection, schedule: Q01DX009 (ip), vehicle: Klucel (hydroxypropylcellulose) (HPC)",113 % of control and 92 % of control
same,T/C,"dose: 256.0 mg/kg/injection, schedule: Q01DX001 (ip), vehicle: Klucel (hydroxypropylcellulose) (HPC)",97 % of control
same,T/C,"dose: 256.0 mg/kg/injection, schedule: Q01DX005 (ip), vehicle: suspension in saline",194 % of control and 208 % of control
same,T/C,"dose: 256.0 mg/kg/injection, schedule: Q01DX005 (iv), vehicle: suspension in saline",171 % of control and 180 % of control
same,T/C,"dose: 400.0 mg/kg/injection, schedule: Q01DX009 (ip), vehicle: Klucel (hydroxypropylcellulose) (HPC)",92 % of control
same,T/C,"dose: 512.0 mg/kg/injection, schedule: Q01DX001 (ip), vehicle: Klucel (hydroxypropylcellulose) (HPC)",122 % of control
same,T/C,"dose: 512.0 mg/kg/injection, schedule: Q01DX005 (ip), vehicle: suspension in saline",177 % of control
same,T/C,"dose: 512.0 mg/kg/injection, schedule: Q01DX005 (iv), vehicle: suspension in saline",171 % of control
same,T/C,"dose: 600.0 mg/kg/injection, schedule: Q04DX003 (ip), vehicle: saline",205 % of control
same,T/C,"dose: 2048.0 mg/kg/injection, schedule: Q01DX001 (ip), vehicle: Klucel (hydroxypropylcellulose) (HPC)",159 % of control
Cn1nnc(-c2cccc(F)c2)n1,T/C,"dose: 25.0 mg/kg/injection, schedule: Q01DX005 (ip), vehicle: Klucel (hydroxypropylcellulose) (HPC)",105 % of control
same,T/C,[1],91 % of control and 96 % of control
same,T/C,[2],93 % of control
same,T/C,[3],91 % of control
CCC1(O)C(=O)Nc2ccccc2C1=O (centres undefined),T/C,"dose: 60.0 mg/kg/injection, schedule: Q01DX005 (ip), vehicle: Klucel (hydroxypropylcellulose) (HPC)",98 % of control
same,T/C,"dose: 120.0 mg/kg/injection, schedule: Q01DX005 (ip), vehicle: Klucel (hydroxypropylcellulose) (HPC)",88 % of control
same,T/C,"dose: 240.0 mg/kg/injection, schedule: Q01DX005 (ip), vehicle: Klucel (hydroxypropylcellulose) (HPC)",98 % of control
CCN(CC)Cc1ccc2ccccc2c1O,T/C,"dose: 50.0 mg/kg/injection, schedule: Q01DX009 (ip), vehicle: saline with Tween-80",103 % of control
same,T/C,[4],89 % of control
same,T/C,[5],92 % of control
COCC(=O)[C@]1(O)Cc2c(O)c3c(c(O)c2[C@@H](OC2CC(N)C(O)C(C)O2)C1)C(=O)c1c(OC)cccc1C3=O (some centres undefined),T/C,"dose: 6.25 mg/kg/injection, schedule: Q04DX003 (ip), vehicle: water",100 % of control
same,T/C,"dose: 12.5 mg/kg/injection, schedule: Q04DX003 (ip), vehicle: water",100 % of control
same,T/C,"dose: 25.0 mg/kg/injection, schedule: Q04DX003 (ip), vehicle: water",109 % of control
same,T/C,"dose: 100.0 mg/kg/injection, schedule: Q04DX003 (ip), vehicle: water",118 % of control
same,T/C,"dose: 200.0 mg/kg/injection, schedule: Q04DX003 (ip), vehicle: water",87 % of control
CN1C(c2ccccc2)C2CCCC(C1c1ccccc1)C21NC(=O)NC1=O (centres undefined),T/C,"dose: 100.0 mg/kg/injection, schedule: Q01DX001 (ip), vehicle: saline with Tween-80",97 % of control
same,T/C,"dose: 200.0 mg/kg/injection, schedule: Q01DX001 (ip), vehicle: saline with Tween-80",94 % of control
same,T/C,"dose: 400.0 mg/kg/injection, schedule: Q01DX001 (ip), vehicle: saline with Tween-80",94 % of control
Cc1ccc(NC(=O)c2ccc(Cl)cc2Cl)cc1C,T/C,[4],95 % of control
same,T/C,[5],104 % of control
same,T/C,"dose: 400.0 mg/kg/injection, schedule: Q01DX009 (ip), vehicle: saline with Tween-80",100 % of control
N#CCCSC(=S)N1CCCC1=O,T/C,"dose: 50.0 mg/kg/injection, schedule: Q01DX005 (ip), vehicle: saline with Tween-80",103 % of control
same,T/C,"dose: 100.0 mg/kg/injection, schedule: Q01DX005 (ip), vehicle: saline with Tween-80",104 % of control
same,T/C,"dose: 200.0 mg/kg/injection, schedule: Q01DX005 (ip), vehicle: saline with Tween-80",114 % of control
CC(=O)Nc1ncc(Sc2ccc([N+](=O)[O-])cc2)s1,T/C,"dose: 1.56 mg/kg/injection, schedule: Q04DX003 (ip), vehicle: saline",100 % of control
same,T/C,"dose: 3.13 mg/kg/injection, schedule: Q04DX003 (ip), vehicle: saline",99 % of control
same,T/C,"dose: 6.25 mg/kg/injection, schedule: Q04DX003 (ip), vehicle: saline",98 % of control
same,T/C,"dose: 12.5 mg/kg/injection, schedule: Q04DX003 (ip), vehicle: saline",97 % of control
[CH3][Pb]([CH3])([CH3])[Cl],T/C,"dose: 0.75 mg/kg/injection, schedule: Q01DX009 (ip), vehicle: saline",90 % of control and 92 % of control
same,T/C,"dose: 1.5 mg/kg/injection, schedule: Q01DX009 (ip), vehicle: saline",90 % of control and 93 % of control and 97 % of control
same,T/C,"dose: 3.0 mg/kg/injection, schedule: Q01DX009 (ip), vehicle: saline",94 % of control (2×) and 97 % of control
same,T/C,"dose: 6.0 mg/kg/injection, schedule: Q01DX009 (ip), vehicle: saline",95 % of control
Cc1cc(C)c(OP(=S)(Oc2c(C)cc(C)cc2C)Oc2c(C)cc(C)cc2C)c(C)c1,T/C,"dose: 100.0 mg/kg/injection, schedule: Q04DX002 (ip), vehicle: Klucel (hydroxypropylcellulose) (HPC)",87 % of control
same,T/C,"dose: 200.0 mg/kg/injection, schedule: Q04DX002 (ip), vehicle: Klucel (hydroxypropylcellulose) (HPC)",86 % of control
CNC(=O)NCCCCCCNC(=O)NC,T/C,[1],99 % of control and 95 % of control
same,T/C,[2],87 % of control and 95 % of control
same,T/C,[3],89 % of control
O=S(=O)(O)c1c(O)ccc2nc3ccccc3nc12,T/C,"dose: 12.5 mg/kg/injection, schedule: Q01DX009 (ip), vehicle: saline",99 % of control and 97 % of control
same,T/C,"dose: 25.0 mg/kg/injection, schedule: Q01DX009 (ip), vehicle: saline",98 % of control and 96 % of control
same,T/C,"dose: 50.0 mg/kg/injection, schedule: Q01DX009 (ip), vehicle: saline",103 % of control and 104 % of control and 106 % of control
same,T/C,"dose: 100.0 mg/kg/injection, schedule: Q01DX009 (ip), vehicle: saline",98 % of control
same,T/C,"dose: 200.0 mg/kg/injection, schedule: Q01DX009 (ip), vehicle: saline",96 % of control
CCC1=CCC2C(=O)c3cc4ccccc4cc3C(=O)C2C1 (centres undefined),T/C,"dose: 6.25 mg/kg/injection, schedule: Q01DX005 (ip), vehicle: saline with Tween-80",103 % of control
same,T/C,"dose: 12.5 mg/kg/injection, schedule: Q01DX005 (ip), vehicle: saline with Tween-80",108 % of control
same,T/C,"dose: 25.0 mg/kg/injection, schedule: Q01DX005 (ip), vehicle: saline with Tween-80",108 % of control and 93 % of control
CCCCN(CCCC)CCCC(C(C)=O)C(=O)OCC (centres undefined),T/C,[1],102 % of control
same,T/C,[2],104 % of control
